Like-named read-outs stand apart in the source and are kept apart here.

A short description of one data set: L6 cytotoxicity assay. Type of data set: cell-based, rat. To be noted: rat, mean of duplicate assays.
Another data set has as its system Trypanosoma cruzi. Put plainly: Antiparasitic assay, Trypanosoma cruzi. Type of data set: cell-based. To be noted: for IC50: mean of duplicate assays, read-out: T. Cruzi IC50. The source says: (§1) The set of compounds were screened against a panel of four parasitic protozoa: Trypanosoma brucei rhodesiense, Trypanosoma cruzi, Leishmania donovani and Plasmodium falciparum K1 dual drug-resistant strain.
(§2) Detailed protocols for these assays have been described elsewhere.

In data set [1] the test system is Plasmodium falciparum K1 dual drug-resistant strain. Put plainly: Antiparasitic assay, Plasmodium falciparum K1. It counts as cell-based. To be noted: for SI Pf, antiplasmodial selectivity index = L6 IC50/P f. IC50: L6 versus P. falciparum K1.
From the text: as §1, §2

The subject of data set [2] is Trypanosoma brucei rhodesiense. The data set is described as follows: Antiparasitic assay, Trypanosoma brucei rhodesiense. It counts as cell-based. To be noted: for IC50: read-out: T. B. Rhod. IC50.
From the text: as §1, §2

The subject of a further data set is Leishmania donovani. The data set is described as follows: Antiparasitic assay, Leishmania donovani. Type of data set: cell-based. To be noted: for IC50: mean of duplicate assays, read-out: L. Don. IC50.
From the text: as §1, §2

The conditions of data set [3]: cited from earlier work.
Data set [4] concerns panel of human tumour cell lines (NCI 60 cell-line panel). The data set is described as follows: cells. To be noted: for tumour cell mean growth: preliminary single dose (10 μM) testing. The source says:
Protocols of testing at the DTP, NCI have been described elsewhere.

Data set [5] deals with Plasmodium falciparum (Pf) D6 clone. Set-up: method as in PMID 20337497. To be noted: cited from earlier work.
Data set [6] has as its system L6 rat skeletal myoblast cell line. The data set is described as follows: L6 cytotoxicity assay. It counts as cell-based.
A further data set concerns Vero cell line. Also noted: method as in PMID 20337497. To be noted: cited from earlier work.
The test system of the next data set is Pf W2 clone. To be noted: cited from earlier work.
The subject of data set [7] is non-malignant human keratinocyte cell line. Also noted: method as in PMID 32054048. To be noted: read-out: human keratinocyte cell line IC50 (cytotoxicity); cited from earlier work.
Data set [8] has as its system human colon tumour cell line HCT-116. To be noted: read-out: HCT-116 IC50 (cytotoxicity); cited from earlier work.
[9] abbreviates: Plasmodium falciparum, K1, read-out: P. Falc. K1 IC50.
Where [10] appears, read: Trypanosoma brucei, RHODESIENSE, mean of duplicate assays.
The mark [11] stands for this setting: Trypanosoma cruzi, read-out: T. Cruzi % inhibition.
Setting [12] is: Plasmodium falciparum, K1, read-out: P. Falc. K1 % inhibition.
Where [13] appears, read: Leishmania donovani, read-out: L. Don. % inhibition.
[14] abbreviates: Trypanosoma brucei, RHODESIENSE

By IC50 is commonly meant the concentration needed to halve the response being measured. In the case of `Cn1cnc(SC2[C@H]3C(=O)C=C4S[C@H]5C[C@]42C2=C(N5)C(=O)c4[nH]cc5c4C2=[N+]3CC5)c1C[C@H](N)C(=O)O` (single isomer, unassigned; (+)) [Compound 12, (+)-discorhabdin H2], the IC50 came to 17000 nM in “L6 cytotoxicity assay”; 63000 nM in the data set on Trypanosoma cruzi (Trypanosoma cruzi); 12000 nM in data set [1] (setting [9]); 2300 nM in data set [2] (setting [10]); 94000 nM with Leishmania donovani (Leishmania donovani). For the same compound, the “SI Pf, antiplasmodial selectivity index = L6 IC50/P f. IC50” value in data set [1] came out at 1.4.
One may read the inhibition as the share of the control response that was lost under treatment. Regarding `O=C1C=C2S[C@H]3C[C@]2(C=C1Br)C1=C(N3)C(=O)c2[nH]cc3c2C1=NCC3` [Compound 1, (+)-discorhabdin B], the inhibition at 1.5 µM is 100% with Trypanosoma cruzi (setting [11]); 100% in data set [1] (setting [12]); 99% in data set [2] (Trypanosoma brucei, RHODESIENSE, read-out: T. B. Rhod. % inhibition); 57% in the data set on Leishmania donovani (setting [13]). Also, in data set [3], the “cytotoxicity (in words, Figure 9)” value is “Cytotoxic”.
The term GI50 denotes the concentration at which growth is held to half of that of the control. Regarding `CCCCCSC1=CC(=O)C(Br)=CC12CCNC1=C2C2=NCCc3c[nH]c(c32)C1=O` (stereo not shown) [Compound 4, Thiopentanyl-Discorhabdin C Adduct], the GI50 in [4] (Homo sapiens, read-out: GI50 (50% growth inhibition)) was 1400 nM. For the same compound, the CC50 in data set [4] (Homo sapiens, read-out: LC50 (50% cell kill)) amounted to 10500 nM. In addition, the “TGI (total growth inhibition)” value in [4] (averaged calculated mean over panel, two experiments at the NCI) is 3900 nM.
With `CCCCCNC1[C@@H]2[N+]3=C4C5=C(NCC[C@@]51[C@@H](O)[C@@H](Br)C2(O)O)C(=O)c1[nH]cc(c14)CC3` (stereo partly shown) [Compound 6, Aminopentane Discorhabdin C Dihydrate Adduct], the results for the IC50 (in “L6 cytotoxicity assay”; in data set [1] (setting [9])) were 810 nM and 250 nM, respectively. Also, the “SI Pf, antiplasmodial selectivity index = L6 IC50/P f. IC50” value in [1] was 3.2. Moreover, the “tumour cell line cytotoxicity / antitumour activity (in words)” value in data set [4] (NCI human tumour cell line panel) is “inactive”. For the same compound, the “tumour cell mean growth” value in [4] is 100.67%.
As for `O=C1C2=C3C4=[N+](CCc5c[nH]c1c54)C1(O)CCC3(CCN2)CC1` [Compound 7, Discorhabdin C Hydrogenation Product], the 50% inhibitory concentration (IC50) was 1700 nM in the data set “L6 cytotoxicity assay” (L6 rat skeletal myoblast cells) and 90 nM in [1] (Plasmodium falciparum, K1, mean of duplicate assays, read-out: P. Falc. K1 IC50). The “SI Pf, antiplasmodial selectivity index = L6 IC50/P f. IC50” value in data set [1] came to 19. Also, the “tumour cell mean growth” value in data set [4] came to 99.57%.
For `O=C1C(Br)=CC2(C=C1Br)CCNC1=C2C2=NCCc3cn(C4C5[N+]6=C7C8=C(NCCC84C(O)C(Br)C5(O)O)C(=O)c4[nH]cc(c47)CC6)c(c32)C1=O` (stereo not shown) [Compound 8], the IC50 in “L6 cytotoxicity assay” was found to be 2100 nM; in the data set with Trypanosoma cruzi (Trypanosoma cruzi), 11100 nM; in data set [1] (setting [9]) it was 6400 nM; in [2] (setting [10]) it was 710 nM; with Leishmania donovani (Leishmania donovani) it was 18700 nM. Further, the “SI Pf, antiplasmodial selectivity index = L6 IC50/P f. IC50” value in data set [1] was 0.3. The “activity towards Trypanosoma brucei rhodesiense (in words)” value in data set [2] is “sub-micromolar”.
`O=C1C2=C(C3=NCCc4c[nH]c1c43)C1(C=C(Br)C(O)C(Br)=C1)CCN2` (stereo not shown) [Compound 9, 3-dihydrodiscorhabdin C]: the IC50 in [5] was 170 nM; in data set [6] it was 110 nM; in [1] (mean of duplicate assays, read-out: P. Falc. K1 IC50) it was 400 nM; in the data set on Vero cell line it was 9800 nM; in the data set with Pf W2 clone it was 130 nM.
As to `O=C1C2=C3C4=[N+](CCc5c[nH]c1c54)[C@@H]1C(=O)C=C4S[C@@H](C[C@@]43C1O)N2` (stereo partly shown) [Compound 14], the values for the IC50 (in the data set “L6 cytotoxicity assay”; in data set [2] (setting [14])) were 11000 nM and 1300 nM, respectively. Also, in the data set with Trypanosoma cruzi (setting [11]), the inhibition at 12 µM was found to be 9%. The inhibition at 1.9 µM (in [1] (setting [12]); in the data set with Leishmania donovani (setting [13])) was 20% throughout.
In the case of `CSC1=CC(=O)C(Br)=C[C@]12C=CNC1=C2C2=NCCc3cn(C)c(c32)C1=O` [Compound 16], the results for the IC50 (in “L6 cytotoxicity assay”; in [1] (setting [9])) were 6100 nM and 1700 nM, respectively. The “SI Pf, antiplasmodial selectivity index = L6 IC50/P f. IC50” value in data set [1] amounted to 3.6.
Regarding `O=C1C2=C(C3=NCCc4c[nH]c1c43)c1c(cc(Br)c(O)c1Br)CCN2` [Compound 17], the IC50 is 41000 nM in the data set “L6 cytotoxicity assay”; 80 nM in [1] (setting [9]); 330 nM in [2] (setting [10]); 560 nM in data set [7]; 160 nM in data set [8]. The inhibition at 0.8 µM came to 0% in the data set with Trypanosoma cruzi (Trypanosoma cruzi, at 0.8 μM, read-out: T. Cruzi % inhibition) and 29% with Leishmania donovani (Leishmania donovani, at 0.8 μM, read-out: L. Don. % inhibition). Also, in [1], the “SI Pf, antiplasmodial selectivity index = L6 IC50/P f. IC50” value was 510. Further, in [2], the “activity towards Trypanosoma brucei rhodesiense (in words)” value is “sub-micromolar”.
Regarding `O=C(Cn1ccnc1[N+](=O)[O-])NCc1ccccc1` [benznidazole, reference compound], in the data set with Trypanosoma cruzi (Trypanosoma cruzi), the IC50 stood at 1350 nM.
As for `CCN(CC)CCCC(C)Nc1ccnc2cc(Cl)ccc12` (stereo not shown) [chloroquine, reference compound], in [1] (setting [9]), the concentration for half-maximal inhibition (IC50) stood at 200 nM.
As to `Nc1nc(N)nc(Nc2ccc([As]3SCC(CO)S3)cc2)n1` (stereo not shown) [melarsoprol, reference compound], the IC50 in data set [2] (setting [14]) was determined as 10 nM.
Consider `CCCCCCCCCCCCCCCCOP(=O)([O-])OCC[N+](C)(C)C` [miltefosine, reference compound], for which the IC50 in the data set on Leishmania donovani (Leishmania donovani) came to 520 nM.
Take `COc1cc([C@@H]2c3cc4c(cc3[C@H](O)[C@H]3COC(=O)[C@H]23)OCO4)cc(OC)c1OC` [podophyllotoxin, reference compound]: half-maximal inhibition in the data set “L6 cytotoxicity assay” (IC50) required 10 nM.
For the compound discorhabdin U [Compound 15], the “T. Cruzi % inhibition” value in the data set on Trypanosoma cruzi (at 1.5 μM) is 100% (1.5). For the same compound, the “P. Falc. K1 % inhibition” value in [1] (at 1.5 μM) is 100% (1.5). Besides, the “T. B. Rhod. % inhibition” value in data set [2] (at 1.5 μM) is 100% (1.5). For the same compound, the “L. Don. % inhibition” value with Leishmania donovani (at 1.5 μM) is given as 97% (1.5).

The record behind these values is paper PMC7460216 (Marine Drugs, 2020).
